Reference: ChEMBL document CHEMBL1201862, “PubChem BioAssay data set” (2004)
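Five compound concentrations were applied to cells in 96-well plates for 48 hours; endpoints were derived by simple linear interpolation of the resulting dose-response curve. GI50 marks 50% less growth.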 Activity calls are given as the source filed them. Rule as the data show it: active = GI50 up to about 1.1 µM and inactive = higher.

What was measured:
Test in all cases: NCI tumour cell line growth inhibition, 48 h
[1] = test system: 786-0
[2] = test system: A498
[3] = test system: A549
[4] = test system: ACHN
[5] = test system: CAKI-1
[6] = test system: CCRF-CEM
[7] = test system: COLO 205
[8] = test system: DLD-1
[9] = test system: DMS-114
[10] = test system: DMS-273
[11] = test system: EKVX
[12] = test system: HCC 2998
[13] = test system: HCT-116
[14] = test system: HCT-15
[15] = test system: HL-60
[16] = test system: HOP-18
[17] = test system: HOP-62
[18] = test system: HOP-92
[19] = test system: HT-29
[20] = test system: IGROV-1
[21] = test system: K562
[22] = test system: KM-20L2
[23] = test system: KM12
[24] = test system: LOX IMVI
[25] = test system: LXFL 529
[26] = test system: M14
[27] = test system: M19-MEL
[28] = test system: MOLT-4
[29] = test system: Malme-3M
[30] = test system: NCI-H226
[31] = test system: NCI-H23
[32] = test system: NCI-H460
[33] = test system: NCI-H522
[34] = test system: OVCAR-3
[35] = test system: OVCAR-4
[36] = test system: OVCAR-5
[37] = test system: OVCAR-8
[38] = test system: RXF 393
[39] = test system: RXF 631
[40] = test system: SF-268
[41] = test system: SF-295
[42] = test system: SF-539
[43] = test system: SK-MEL-28
[44] = test system: SK-MEL-2
[45] = test system: SK-MEL-5
[46] = test system: SK-OV-3
[47] = test system: SN12C
[48] = test system: SNB-19
[49] = test system: SNB-75
[50] = test system: SNB-78
[51] = test system: SR
[52] = test system: SW-620
[53] = test system: TK-10
[54] = test system: U-251
[55] = test system: UACC-257
[56] = test system: UACC-62
[57] = test system: UO-31
[58] = test system: XF498
[59] = test system: RPMI-8226

Q: With `C[N+](C)(C)CC(=O)N/N=c1\cc(C(=O)Nc2ccc(N=O)cc2C#N)oc2cc(O)ccc12` as the compound, how does the GI50 [1] read?
A: > 100 µM (inactive)

Q: What about the GI50 [2] of the same compound?
A: > 100 µM (inactive)

Q: What about the GI50 [3] of the same compound?
A: > 100 µM (inactive)

Q: And the GI50 [4]?
A: > 100 µM (inactive)

Q: And the GI50 [5]?
A: > 100 µM (inactive)

Q: And the GI50 [6]?
A: > 100 µM (inactive)

Q: And the GI50 [7]?
A: > 100 µM (inactive)

Q: What about the GI50 [8] of the same compound?
A: > 100 µM (inactive)

Q: What about the GI50 [9] of the same compound?
A: > 100 µM (inactive)

Q: What about the GI50 [10] of the same compound?
A: > 100 µM (inactive)

Q: What about the GI50 [11] of the same compound?
A: > 100 µM (inactive)

Q: What about the GI50 [12] of the same compound?
A: > 100 µM (inactive)

Q: And the GI50 [13]?
A: > 100 µM (inactive)

Q: And the GI50 [14]?
A: > 100 µM

Q: What about the GI50 [15] of the same compound?
A: > 100 µM (inactive)

Q: And the GI50 [16]?
A: > 100 µM (inactive)

Q: What about the GI50 [17] of the same compound?
A: > 100 µM (inactive)

Q: What about the GI50 [18] of the same compound?
A: > 100 µM (inactive)

Q: And the GI50 [19]?
A: > 100 µM (inactive)

Q: And the GI50 [20]?
A: > 100 µM (inactive)

Q: And the GI50 [21]?
A: > 100 µM (inactive)

Q: And the GI50 [22]?
A: > 100 µM (inactive)

Q: What about the GI50 [23] of the same compound?
A: > 100 µM (inactive)

Q: What about the GI50 [24] of the same compound?
A: > 100 µM (inactive)

Q: And the GI50 [25]?
A: > 100 µM (inactive)

Q: And the GI50 [26]?
A: > 100 µM (inactive)

Q: And the GI50 [27]?
A: > 100 µM (inactive)

Q: What about the GI50 [28] of the same compound?
A: > 100 µM (inactive)

Q: And the GI50 [29]?
A: > 100 µM (inactive)

Q: And the GI50 [30]?
A: > 100 µM (inactive)

Q: What about the GI50 [31] of the same compound?
A: > 100 µM (inactive)

Q: What about the GI50 [32] of the same compound?
A: > 100 µM (inactive)

Q: What about the GI50 [33] of the same compound?
A: > 100 µM (inactive)

Q: And the GI50 [34]?
A: > 100 µM (inactive)

Q: What about the GI50 [35] of the same compound?
A: > 100 µM (inactive)

Q: And the GI50 [36]?
A: > 100 µM (inactive)

Q: What about the GI50 [37] of the same compound?
A: > 100 µM (inactive)

Q: What about the GI50 [38] of the same compound?
A: > 100 µM (inactive)

Q: What about the GI50 [39] of the same compound?
A: > 100 µM (inactive)

Q: And the GI50 [40]?
A: > 100 µM (inactive)

Q: What about the GI50 [41] of the same compound?
A: > 100 µM (inactive)

Q: And the GI50 [42]?
A: > 100 µM (inactive)

Q: What about the GI50 [43] of the same compound?
A: > 100 µM (inactive)

Q: And the GI50 [44]?
A: > 100 µM (inactive)

Q: What about the GI50 [45] of the same compound?
A: > 100 µM (inactive)

Q: And the GI50 [46]?
A: > 100 µM (inactive)

Q: What about the GI50 [47] of the same compound?
A: > 100 µM (inactive)

Q: What about the GI50 [48] of the same compound?
A: > 100 µM (inactive)

Q: And the GI50 [49]?
A: > 100 µM (inactive)

Q: What about the GI50 [50] of the same compound?
A: > 100 µM (inactive)

Q: And the GI50 [51]?
A: > 100 µM (inactive)

Q: What about the GI50 [52] of the same compound?
A: > 100 µM (inactive)

Q: What about the GI50 [53] of the same compound?
A: > 100 µM (inactive)

Q: What about the GI50 [54] of the same compound?
A: > 100 µM (inactive)

Q: What about the GI50 [55] of the same compound?
A: > 100 µM (inactive)

Q: What about the GI50 [56] of the same compound?
A: > 100 µM (inactive)

Q: And the GI50 [57]?
A: 72.3 µM (inactive)

Q: What about the GI50 [58] of the same compound?
A: > 100 µM (inactive)

Q: `O=C(CC/C(CC(=O)c1ccc(Cl)cc1)=N/O)Nc1ccc(Cl)c(Cl)c1` was tested. Which GI50 [1] did it give?
A: > 100 µM (inactive)

Q: And the GI50 [2]?
A: > 100 µM (inactive)

Q: And the GI50 [3]?
A: > 100 µM (inactive)

Q: What about the GI50 [4] of the same compound?
A: 31.8 µM (inactive)

Q: And the GI50 [5]?
A: 86.1 µM (inactive)

Q: What about the GI50 [6] of the same compound?
A: > 100 µM (inactive)

Q: What about the GI50 [7] of the same compound?
A: > 100 µM (inactive)

Q: And the GI50 [8]?
A: > 100 µM (inactive)

Q: What about the GI50 [9] of the same compound?
A: 65.3 µM (inactive)

Q: And the GI50 [10]?
A: > 100 µM (inactive)

Q: And the GI50 [11]?
A: 10.3 µM (inactive)

Q: What about the GI50 [13] of the same compound?
A: > 100 µM (inactive)

Q: And the GI50 [14]?
A: 48.1 µM

Q: What about the GI50 [15] of the same compound?
A: > 100 µM (inactive)

Q: And the GI50 [16]?
A: > 100 µM (inactive)

Q: And the GI50 [17]?
A: > 100 µM (inactive)

Q: What about the GI50 [18] of the same compound?
A: 82.4 µM (inactive)

Q: What about the GI50 [19] of the same compound?
A: > 100 µM (inactive)

Q: And the GI50 [20]?
A: 47.6 µM (inactive)

Q: What about the GI50 [21] of the same compound?
A: 50.4 µM (inactive)

Q: What about the GI50 [22] of the same compound?
A: 36.2 µM (inactive)

Q: And the GI50 [23]?
A: > 100 µM (inactive)

Q: And the GI50 [25]?
A: 80.7 µM (inactive)

Q: And the GI50 [26]?
A: > 100 µM (inactive)

Q: What about the GI50 [27] of the same compound?
A: > 100 µM (inactive)

Q: And the GI50 [28]?
A: 53.2 µM (inactive)

Q: And the GI50 [29]?
A: > 100 µM (inactive)

Q: And the GI50 [30]?
A: > 100 µM (inactive)

Q: And the GI50 [31]?
A: 45.5 µM (inactive)

Q: What about the GI50 [32] of the same compound?
A: > 100 µM (inactive)

Q: And the GI50 [33]?
A: 82.6 µM (inactive)

Q: And the GI50 [34]?
A: > 100 µM (inactive)

Q: What about the GI50 [35] of the same compound?
A: 43.4 µM (inactive)

Q: And the GI50 [36]?
A: 24 µM (inactive)

Q: What about the GI50 [37] of the same compound?
A: > 100 µM (inactive)

Q: What about the GI50 [59] of the same compound?
A: 76.9 µM (inactive)

Q: And the GI50 [39]?
A: > 100 µM (inactive)

Q: And the GI50 [40]?
A: > 100 µM (inactive)

Q: What about the GI50 [41] of the same compound?
A: > 100 µM (inactive)

Q: And the GI50 [42]?
A: > 100 µM (inactive)

Q: What about the GI50 [43] of the same compound?
A: > 100 µM (inactive)

Q: And the GI50 [44]?
A: 38.3 µM (inactive)

Q: And the GI50 [45]?
A: 76.2 µM (inactive)

Q: What about the GI50 [46] of the same compound?
A: > 100 µM (inactive)

Q: What about the GI50 [47] of the same compound?
A: > 100 µM (inactive)

Q: What about the GI50 [48] of the same compound?
A: > 100 µM (inactive)

Q: What about the GI50 [49] of the same compound?
A: 26 µM (inactive)

Q: And the GI50 [50]?
A: > 100 µM (inactive)

Q: And the GI50 [51]?
A: 89.5 µM (inactive)

Q: And the GI50 [52]?
A: > 100 µM (inactive)

Q: And the GI50 [53]?
A: > 100 µM (inactive)

Q: What about the GI50 [54] of the same compound?
A: > 100 µM (inactive)

Q: What about the GI50 [55] of the same compound?
A: > 100 µM (inactive)

Q: And the GI50 [56]?
A: 18.3 µM (inactive)

Q: What about the GI50 [57] of the same compound?
A: 98.4 µM (inactive)

Q: What about the GI50 [58] of the same compound?
A: > 100 µM (inactive)
